One data set has as its system bacteria. Kind of data set: Neutralization of biocides - H2O2 and NH4Cl. Particulars: for microbial growth: after 14 days, 1, 10 or 100 ppm glutaraldehyde mixed with five times molar excess of the agent; for neutralizing biocides (glutaraldehyde): five times molar excess over 1, 10 or 100 ppm glutaraldehyde. The class given is cell-based. As to the method:
In this experiment, minimal medium containing 1, 10 or 100 ppm of glutaraldehyde was mixed with a five times molar excess of H2O2 or NH4Cl. Hydrocarbonaceous product and bacteria were then added to the mixture.

A further data set has as its system bacterial inoculum. The class given is cell-based. Conditions: for Growth, nitrogen compound control: control without glutaraldehyde; for Growth, nitrogen compound control / Growth, Neutralization of Biocides with Nitrogen Compounds: n-C16; for Growth, Neutralization of Biocides with Nitrogen Compounds: with 10 ppm glutaraldehyde, two moles nitrogen compound per glutaraldehyde; for neutralizing 10 ppm of glutaraldehyde: two moles per glutaraldehyde. The source says: The different nitrogen-containing compounds evaluated include the following: […]

A short description of another data set: in vivo. Conditions: Cyprinodon variegatus (sheepshead minnow, larval), 96 h, control experiment, separate compounds. The protocol: (§1) […]. EPA/600/4-90/027F Washington, D.C.) conducted at Pacific Eco-Risk Laboratories, Martinez, Calif.
(§2) LOEC is the Lowest Observable Effect Concentration and is defined as the minimum concentration where mortality is observed for the test species. […] LC-50, the concentration that will cause mortality of 50% of the organisms tested within 96 h, is a calculated value based on all observations.
(§3) The solutions were mixed for 48 hours prior to the start of the bioassays. The solutions were diluted to perform bioassays at starting glutaraldehyde concentrations of 100, 50, 37.5, 25, and 10.5 mg/L. The results are summarized in Table X.

Data set [1] has as its system Larval Sheepshead Minnow (Cyprinodon variegatus). Kind of data set: in vivo. Particulars: Cyprinodon variegatus (sheepshead minnow), 96 h. As to the method:
as §1, §2, §3

Converted amounts (≈) assume the structure as drawn. Like-named read-outs stand apart in the source and are kept apart here.

As usually defined, the LC50 is the concentration lethal to half of the exposed cells or organisms. The low end stands for greater toxicity, the high end for lower toxicity.

Consider `OO` [H2O2], for which, in the data set with bacteria, the microbial growth result is recorded as “no growth” and the “neutralizing biocides (glutaraldehyde)” value is listed as “not effective”.

With `Cl.N` [NH4Cl], in the data set on bacteria, the microbial growth entry is “no growth” and the “neutralizing biocides (glutaraldehyde)” value is given as “not effective”.

`Nc1ccccc1` [aniline, Aniline]: the “toxicity of the nitrogen-containing compound itself (microbial growth)” value in the data set with bacterial inoculum is given as “excessively toxic”. The “Growth, nitrogen compound control” value in the data set with bacterial inoculum (Time 0 days), with bacterial inoculum (Time 1 days), in the data set with bacterial inoculum (Time 2 days), in the data set with bacterial inoculum (Time 6 days), in the data set with bacterial inoculum (Time 7 days) and with bacterial inoculum (Time 9 days) was “−” in each case. Also, the “Growth, nitrogen compound control” value with bacterial inoculum (Time 13 days) and with bacterial inoculum (Time 20 days) was “−” throughout. In addition, the “Growth, Neutralization of Biocides with Nitrogen Compounds” value (“Growth, Neutralization of Biocides” below) in the data set with bacterial inoculum (Time 0 days), in the data set with bacterial inoculum (Time 1 days), in the data set with bacterial inoculum (Time 2 days), in the data set with bacterial inoculum (Time 6 days), in the data set with bacterial inoculum (Time 7 days) and in the data set on bacterial inoculum (Time 9 days) was “−” each time. In addition, the “Growth, Neutralization of Biocides” value with bacterial inoculum (Time 13 days) and in the data set with bacterial inoculum (Time 20 days) was “−” each time.

`OCCNCCO` [DEA, Diethanolamine]: the “Growth, nitrogen compound control” value with bacterial inoculum (Time 0 days) was “−”; in the data set on bacterial inoculum (Time 1 days), “−”; in the data set on bacterial inoculum (Time 2 days), “−”; in the data set on bacterial inoculum (Time 6 days), “+”; in the data set with bacterial inoculum (Time 7 days) it was “+”; with bacterial inoculum (Time 9 days) it was “+”. Further, the “Growth, nitrogen compound control” value in the data set with bacterial inoculum (Time 13 days) is on record as “+”; in the data set with bacterial inoculum (Time 20 days) it was “−”. The “neutralizing 10 ppm of glutaraldehyde” value in the data set on bacterial inoculum is “effective”. Further, the “Growth, Neutralization of Biocides” value is “−” in the data set on bacterial inoculum (Time 0 days); “+” in the data set on bacterial inoculum (Time 1 days); “+” in the data set on bacterial inoculum (Time 2 days); “+” in the data set with bacterial inoculum (Time 6 days); “+” with bacterial inoculum (Time 7 days); “+” in the data set with bacterial inoculum (Time 9 days). The “Growth, Neutralization of Biocides” value with bacterial inoculum (Time 13 days) and in the data set with bacterial inoculum (Time 20 days) was “+” in each case.

In turn, `NCCO` [MEA, Monoethanolamine] had a 50% lethal concentration (LC50) at 96 h in “in vivo” of 1500 µg/mL (≈ 24.6 mM). In addition, the LOEC in data set [1] amounted to 1700 mg/L. The molecule also showed an NOEC in data set [1] of 1000 mg/L. The “Growth, nitrogen compound control” value is “−” in the data set on bacterial inoculum (Time 0 days); “−” in the data set with bacterial inoculum (Time 1 days); “−” in the data set on bacterial inoculum (Time 2 days); “−” in the data set with bacterial inoculum (Time 6 days); “+” in the data set on bacterial inoculum (Time 7 days); “+” in the data set with bacterial inoculum (Time 9 days). For the same molecule, the “Growth, nitrogen compound control” value with bacterial inoculum (Time 13 days) and in the data set with bacterial inoculum (Time 20 days) was “+” in each case. Moreover, the “neutralizing 10 ppm of glutaraldehyde” value with bacterial inoculum is “effective”. Also, the “Growth, Neutralization of Biocides” value in the data set on bacterial inoculum (Time 0 days) was “−”; in the data set on bacterial inoculum (Time 1 days), “−”; with bacterial inoculum (Time 2 days), “−”; in the data set on bacterial inoculum (Time 6 days), “+”; in the data set with bacterial inoculum (Time 7 days), “+”; in the data set with bacterial inoculum (Time 9 days) it was “+”. Also, the “Growth, Neutralization of Biocides” value in the data set on bacterial inoculum (Time 13 days) and with bacterial inoculum (Time 20 days) was “+” each time.

Take `CCNCC` [diethylamine, Diethylamine]: the “Growth, nitrogen compound control” value with bacterial inoculum (Time 0 days) is given as “−”; in the data set with bacterial inoculum (Time 1 days) it was “−”; with bacterial inoculum (Time 2 days), “−”; in the data set with bacterial inoculum (Time 6 days), “+”; in the data set on bacterial inoculum (Time 7 days), “+”; with bacterial inoculum (Time 9 days), “+”. The “Growth, nitrogen compound control” value with bacterial inoculum (Time 13 days) and with bacterial inoculum (Time 20 days) was “+” throughout. The “neutralizing 10 ppm of glutaraldehyde” value in the data set on bacterial inoculum is on record as “effective”. Also, the “Growth, Neutralization of Biocides” value is given as “−” in the data set on bacterial inoculum (Time 0 days); “−” in the data set with bacterial inoculum (Time 1 days); “−” with bacterial inoculum (Time 2 days); “+” with bacterial inoculum (Time 6 days); “+” with bacterial inoculum (Time 7 days); “+” in the data set on bacterial inoculum (Time 9 days). The “Growth, Neutralization of Biocides” value in the data set with bacterial inoculum (Time 13 days) and with bacterial inoculum (Time 20 days) was “+” in each case.

(Values after patent US6626122B2, “Deactivatable biocides in ballast water” (Chevron U.S.A. Inc, priority 2001, dated 2003).)
